Data on nine compounds can be found in PubChem BioAssay AID1259411 (Chemical Carcinogenesis Research Information System (CCRIS), 2018).

Active and inactive are the calls of the source. How the calls were made is not given here.

The test system of the series is rodent carcinogenicity bioassays, tumor incidence. The series can be described thus: CCRIS carcinogenicity studies. Put shortly: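 NCI-built, expert-reviewed records of carcinogenicity and related test outcomes (mutagenicity, tumor promotion/inhibition) compiled from published and report sources, historical span 1985-2011, not updated.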

Turning to `OC[P+](CO)(CO)CO`, the carcinogen call runs as follows: (Species: MOUSE, Strain/Sex: B6C3F1/FEMALE, Route: GAVAGE, Dose: 0, 5, 10 MG/KG IN DISTILLED WATER 5 D/WK FOR 103 WK, Dose: 0, 5, 10 MG/KG IN DISTILLED WATER 5 D/WK FOR 103 WK) “inactive; negative”; (Species: MOUSE, Strain/Sex: B6C3F1/FEMALE, Route: GAVAGE, Dose: 0, 15, 30 MG/KG IN DISTILLED WATER 5 D/WK FOR 103 WK, Dose: 0, 15, 30 MG/KG IN DISTILLED WATER 5 D/WK FOR 103 WK) “inactive; negative”; (Species: MOUSE, Strain/Sex: B6C3F1/MALE, Route: GAVAGE, Dose: 0, 5, 10 MG/KG IN DISTILLED WATER 5 D/WK FOR 103 WK, Dose: 0, 5, 10 MG/KG IN DISTILLED WATER 5 D/WK FOR 103 WK) “inactive; negative”; (Species: MOUSE, Strain/Sex: B6C3F1/MALE, Route: GAVAGE, Dose: 0, 7.5, 15 MG/KG IN DISTILLED WATER 5 D/WK FOR 103 WK, Dose: 0, 7.5, 15 MG/KG IN DISTILLED WATER 5 D/WK FOR 103 WK) “inactive; negative”; (Species: RAT, Strain/Sex: F344/FEMALE, Route: GAVAGE, Dose: 0, 3.75, 7.5 MG/KG IN DISTILLED WATER 5 D/WK FOR 103 WK, Dose: 0, 3.75, 7.5 MG/KG IN DISTILLED WATER 5 D/WK FOR 103 WK) “inactive; negative”; (Species: RAT, Strain/Sex: F344/FEMALE, Route: GAVAGE, Dose: 0, 5, 10 MG/KG IN DISTILLED WATER 5 D/WK FOR 104 WK, Dose: 0, 5, 10 MG/KG IN DISTILLED WATER 5 D/WK FOR 104 WK) “inactive; negative”. In addition, the carcinogen call runs as follows: (Species: RAT, Strain/Sex: F344/MALE, Route: GAVAGE, Dose: 0, 3.75, 7.5 MG/KG IN DISTILLED WATER 5 D/WK FOR 103 WK, Dose: 0, 3.75, 7.5 MG/KG IN DISTILLED WATER 5 D/WK FOR 103 WK) “inactive; negative”; (Species: RAT, Strain/Sex: F344/MALE, Route: GAVAGE, Dose: 0, 5, 10 MG/KG IN DISTILLED WATER 5 D/WK FOR 104 WK, Dose: 0, 5, 10 MG/KG IN DISTILLED WATER 5 D/WK FOR 104 WK) “inactive; negative”.

In the case of `O=[N+]([O-])c1ccc(N=Nc2c(O)ccc3ccccc23)c([N+](=O)[O-])c1`, the carcinogen call runs as follows: (Species: MOUSE, Strain/Sex: ICR/FEMALE, Route: DERMAL, Dose: 0, 1 MG IN 0.1 ML DISTILLED WATER 2/WK FOR A MEAN TOTAL DOSE OF 143.7 MG (STUDY DURATION: 18 MO)) “inactive; negative”; (Species: MOUSE, Strain/Sex: ICR/MALE, Route: DERMAL, Dose: 0, 1 MG IN 0.1 ML DISTILLED WATER 2/WK FOR A MEAN TOTAL DOSE OF 143.7 MG (STUDY DURATION: 18 MO)) “inactive; negative”.

For the compound `[Be+2]`, the carcinogen call (Species: RAT, Strain/Sex: WISTAR/FEMALE, Route: INTRATRACHEAL, Dose: 50 UG THEN 25 UG AFTER 10 MO, Tumor Site: Type of Lesion: LUNG: ADENOMA, ADENOCARCINOMA, ALVEOLAR/BRONCHIOLAR TUMOR) was “active; positive”.

With `O=P(OC(CCl)CCl)(OC(CCl)CCl)OC(CCl)CCl`, the carcinogen call is “active; positive” (Species: RAT, Strain/Sex: SPRAGUE-DAWLEY CD/FEMALE, Route: ORAL, Dose: 0, 5, 20, 80 MG/KG/D IN FEED FOR 2 YR (STUDY DURATION: 2 YR), Dose: 0, 5, 20, 80 MG/KG/D IN FEED FOR 2 YR (STUDY DURATION: 2 YR), Tumor Site: Type of Lesion: ADRENAL GLAND: CORTICAL ADENOMA, KIDNEY: CORTICAL ADENOMA, LIVER: HEPATOCELLULAR ADENOMA, Tumor Site: Type of Lesion: ADRENAL GLAND: CORTICAL ADENOMA, KIDNEY: CORTICAL ADENOMA, LIVER: HEPATOCELLULAR ADENOMA) and “active; positive” (Species: RAT, Strain/Sex: SPRAGUE-DAWLEY CD/MALE, Route: ORAL, Dose: 0, 5, 20, 80 MG/KG/D IN FEED FOR 2 YR (STUDY DURATION: 2 YR), Dose: 0, 5, 20, 80 MG/KG/D IN FEED FOR 2 YR (STUDY DURATION: 2 YR), Tumor Site: Type of Lesion: KIDNEY: RENAL CORTICAL ADENOMA, LIVER: HEPATOCELLULAR ADENOMA, TESTES: INTERSTITIAL CELL TUMOR, Tumor Site: Type of Lesion: KIDNEY: RENAL CORTICAL ADENOMA, LIVER: HEPATOCELLULAR ADENOMA, TESTES: INTERSTITIAL CELL TUMOR).

Turning to `Cc1c(O)cc2c(c1C)OC(C)(CCCC(C)CCCC(C)CCCC(C)C)CC2` (configuration not stated), where the note is “Species: MOUSE, Strain/Sex: 6HF1/MALE, Route: ORAL, Dose: 0, 5% IN BASAL DIET FOR 104 WK (STUDY DURATION: 104 WK), Tumor Site: Type of Lesion: LIVER: TUMOR”, the carcinogen call was “active; positive”.

With `ClC1=C(Cl)C(Cl)(Cl)C(Cl)=C1Cl`, the carcinogen call reads like this: (Species: MOUSE, Strain/Sex: B6C3F1/FEMALE, Route: INHALATION, Dose: 0, 0.01, 0.05, 0.2 PPM IN AIR 6 HR/D 5 D/WK FOR 104 WK (STUDY DURATION: 104 WK), Dose: 0, 0.01, 0.05, 0.2 PPM IN AIR 6 HR/D 5 D/WK FOR 104 WK (STUDY DURATION: 104 WK)) “inactive; negative”; (Species: MOUSE, Strain/Sex: B6C3F1/MALE, Route: INHALATION, Dose: 0, 0.01, 0.05, 0.2 PPM IN AIR 6 HR/D 5 D/WK FOR 104 WK (STUDY DURATION: 104 WK), Dose: 0, 0.01, 0.05, 0.2 PPM IN AIR 6 HR/D 5 D/WK FOR 104 WK (STUDY DURATION: 104 WK)) “inactive; negative”; (Species: RAT, Strain/Sex: F344/FEMALE, Route: INHALATION, Dose: 0, 0.01, 0.05, 0.2 PPM IN AIR 6 HR/D 5 D/WK FOR 104 WK (STUDY DURATION: 104 WK), Dose: 0, 0.01, 0.05, 0.2 PPM IN AIR 6 HR/D 5 D/WK FOR 104 WK (STUDY DURATION: 104 WK)) “inactive; negative”; (Species: RAT, Strain/Sex: F344/MALE, Route: INHALATION, Dose: 0, 0.01, 0.05, 0.2 PPM IN AIR 6 HR/D 5 D/WK FOR 104 WK (STUDY DURATION: 104 WK), Dose: 0, 0.01, 0.05, 0.2 PPM IN AIR 6 HR/D 5 D/WK FOR 104 WK (STUDY DURATION: 104 WK)) “inactive; negative”.

As to `Nc1cccc(N)c1`, the carcinogen call runs as follows: (Species: MOUSE, Strain/Sex: B6C3F1/FEMALE, Route: ORAL, Dose: 0, 0.02, 0.04% IN DRINKING WATER FOR 78 WK, TOTAL INTAKE 13.0, 22.9 G/KG (STUDY DURATION: 85 WK), Dose: 0, 0.02, 0.04% IN DRINKING WATER FOR 78 WK, TOTAL INTAKE 13.0, 22.9 G/KG (STUDY DURATION: 85 WK)) “inactive; negative”; (Species: MOUSE, Strain/Sex: B6C3F1/MALE, Route: ORAL, Dose: 0, 0.02, 0.04% IN THE DRINKING WATER FOR 78 WK, TOTAL INTAKE 10.9, 21.0 G/KG BODY WEIGHT (STUDY DURATION: 85 WK), Dose: 0, 0.02, 0.04% IN THE DRINKING WATER FOR 78 WK, TOTAL INTAKE 10.9, 21.0 G/KG BODY WEIGHT (STUDY DURATION: 85 WK)) “inactive; negative”.

Take `COc1ccc(O)c(C(C)(C)C)c1`: the carcinogen call (Species: HAMSTER, Strain/Sex: SYRIAN/MALE, Route: ORAL, Dose: 1% IN DIET FOR 24 WK (STUDY DURATION: 24 WK), Tumor Site: Type of Lesion: FORESTOMACH: PAPILLOMA) is “active; positive”.

For `CN(N=O)C(=O)N[C@@H](C=O)[C@@H](O)[C@H](O)[C@H](O)CO`, the carcinogen call was “active; positive” (Species: HAMSTER, Route: INTRAPERITONEAL, INTRAVENOUS, Tumor Site: Type of Lesion: LIVER); “active; positive” (Species: MOUSE, Route: INTRAPERITONEAL, Tumor Site: Type of Lesion: KIDNEY, LUNG, UTERUS, Tumor Site: Type of Lesion: KIDNEY, LUNG, UTERUS); “active; positive” (Species: RAT, Route: INTRAPERITONEAL, Tumor Site: Type of Lesion: KIDNEY, LIVER); “active; positive” (Species: RAT, Route: INTRAVENOUS, Tumor Site: Type of Lesion: KIDNEY); “active; positive” (Species: RAT, Strain/Sex: SHR/MALE, Route: INTRAPERITONEAL, Dose: 0, 37.5, 50, 62.5, 75 MG/KG INJECTED ONCE (STUDY DURATION: 12 MO), Dose: 0, 37.5, 50, 62.5, 75 MG/KG INJECTED ONCE (STUDY DURATION: 12 MO), Tumor Site: Type of Lesion: LIVER: HEPATOMA, KIDNEY: NEPHROBLASTOMA, PANCREATIC ISLETS: TUMOR, Tumor Site: Type of Lesion: LIVER: HEPATOMA, KIDNEY: NEPHROBLASTOMA, PANCREATIC ISLETS: TUMOR); “active; positive” (Species: RAT, Strain/Sex: WISTAR/MALE, Route: INTRAPERITONEAL, Dose: 0, 100, 125, 137.5, 150 MG/KG INJECTED ONCE (STUDY DURATION: 12 M0), Dose: 0, 100, 125, 137.5, 150 MG/KG INJECTED ONCE (STUDY DURATION: 12 M0), Tumor Site: Type of Lesion: LIVER: HEPATOMA, KIDNEY: NEPHROBLASTOMA).
